According to article PMC4979471 (Cell Death Discovery, 2015):
Read-outs that look alike come from different tables or passages of the source.

Experiments:
Assay in all cases: Kinase selectivity, P33-radiolabeled assay
Type in all cases: biochemical
Conditions in all cases: 10 μM ATP
CDK2/cyclin A = biological target: T1, CDK2/cyclin A (Homo sapiens, UniProt P24941)
T1 construct: purchased Reaction Biology Corp
In short: (§1)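 Values show % enzyme activity normalised to DMSO vehicle. They come from one 10 μM compound concentration run twice, at an ATP level of 10 μM.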

DLK/MAP3K12 = biological target: T2, DLK/MAP3K12 (Homo sapiens, UniProt Q12852)
T2 construct: purchased Reaction Biology Corp
T2 sequence (Q12852 1-859): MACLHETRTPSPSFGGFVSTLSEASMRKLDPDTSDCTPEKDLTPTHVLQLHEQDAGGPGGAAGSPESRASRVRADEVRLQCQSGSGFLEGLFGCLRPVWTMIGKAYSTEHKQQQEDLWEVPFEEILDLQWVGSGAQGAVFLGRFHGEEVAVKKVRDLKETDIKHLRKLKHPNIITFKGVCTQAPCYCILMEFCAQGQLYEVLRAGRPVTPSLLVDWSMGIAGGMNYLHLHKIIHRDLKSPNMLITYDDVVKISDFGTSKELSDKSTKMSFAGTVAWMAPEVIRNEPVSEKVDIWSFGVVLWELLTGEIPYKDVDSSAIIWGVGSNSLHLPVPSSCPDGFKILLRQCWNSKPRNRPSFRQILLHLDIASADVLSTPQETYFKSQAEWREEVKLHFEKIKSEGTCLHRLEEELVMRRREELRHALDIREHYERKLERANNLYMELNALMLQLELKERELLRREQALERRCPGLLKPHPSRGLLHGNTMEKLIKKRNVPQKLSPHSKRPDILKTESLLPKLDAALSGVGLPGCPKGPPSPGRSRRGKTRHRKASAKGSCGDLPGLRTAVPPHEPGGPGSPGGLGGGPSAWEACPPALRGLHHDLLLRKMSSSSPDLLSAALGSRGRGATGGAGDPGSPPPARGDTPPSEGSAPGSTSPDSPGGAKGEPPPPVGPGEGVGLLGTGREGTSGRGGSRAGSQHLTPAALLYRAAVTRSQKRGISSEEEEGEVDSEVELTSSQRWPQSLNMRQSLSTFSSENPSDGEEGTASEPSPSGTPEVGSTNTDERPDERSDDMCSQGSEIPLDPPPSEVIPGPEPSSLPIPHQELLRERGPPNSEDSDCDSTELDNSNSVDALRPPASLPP
In short: as §1

FAK/PTK2 = biological target: T3, FAK/PTK2 (Homo sapiens, UniProt Q05397)
T3 construct: purchased Reaction Biology Corp
In short: as §1

FGFR4 = biological target: T4, FGFR4 (Homo sapiens, UniProt P22455)
T4 construct: purchased Reaction Biology Corp
In short: as §1

LYN B = biological target: T5, LYN B (Homo sapiens, UniProt P07948)
T5 construct: purchased Reaction Biology Corp
In short: as §1

PASK = biological target: T6, PASK (Homo sapiens, UniProt Q96RG2)
T6 construct: purchased Reaction Biology Corp
In short: as §1

PKCb1 = biological target: T7, PKCb1 (Homo sapiens, UniProt P05771)
T7 construct: purchased Reaction Biology Corp
In short: as §1

STK32C/YANK3 = biological target: T8, STK32C/YANK3 (Homo sapiens, UniProt Q86UX6)
T8 construct: purchased Reaction Biology Corp
In short: as §1

TAOK2/TAO1 = biological target: T9, TAOK2/TAO1 (Homo sapiens, UniProt Q9UL54)
T9 construct: purchased Reaction Biology Corp
T9 sequence (Q9UL54 1-1235): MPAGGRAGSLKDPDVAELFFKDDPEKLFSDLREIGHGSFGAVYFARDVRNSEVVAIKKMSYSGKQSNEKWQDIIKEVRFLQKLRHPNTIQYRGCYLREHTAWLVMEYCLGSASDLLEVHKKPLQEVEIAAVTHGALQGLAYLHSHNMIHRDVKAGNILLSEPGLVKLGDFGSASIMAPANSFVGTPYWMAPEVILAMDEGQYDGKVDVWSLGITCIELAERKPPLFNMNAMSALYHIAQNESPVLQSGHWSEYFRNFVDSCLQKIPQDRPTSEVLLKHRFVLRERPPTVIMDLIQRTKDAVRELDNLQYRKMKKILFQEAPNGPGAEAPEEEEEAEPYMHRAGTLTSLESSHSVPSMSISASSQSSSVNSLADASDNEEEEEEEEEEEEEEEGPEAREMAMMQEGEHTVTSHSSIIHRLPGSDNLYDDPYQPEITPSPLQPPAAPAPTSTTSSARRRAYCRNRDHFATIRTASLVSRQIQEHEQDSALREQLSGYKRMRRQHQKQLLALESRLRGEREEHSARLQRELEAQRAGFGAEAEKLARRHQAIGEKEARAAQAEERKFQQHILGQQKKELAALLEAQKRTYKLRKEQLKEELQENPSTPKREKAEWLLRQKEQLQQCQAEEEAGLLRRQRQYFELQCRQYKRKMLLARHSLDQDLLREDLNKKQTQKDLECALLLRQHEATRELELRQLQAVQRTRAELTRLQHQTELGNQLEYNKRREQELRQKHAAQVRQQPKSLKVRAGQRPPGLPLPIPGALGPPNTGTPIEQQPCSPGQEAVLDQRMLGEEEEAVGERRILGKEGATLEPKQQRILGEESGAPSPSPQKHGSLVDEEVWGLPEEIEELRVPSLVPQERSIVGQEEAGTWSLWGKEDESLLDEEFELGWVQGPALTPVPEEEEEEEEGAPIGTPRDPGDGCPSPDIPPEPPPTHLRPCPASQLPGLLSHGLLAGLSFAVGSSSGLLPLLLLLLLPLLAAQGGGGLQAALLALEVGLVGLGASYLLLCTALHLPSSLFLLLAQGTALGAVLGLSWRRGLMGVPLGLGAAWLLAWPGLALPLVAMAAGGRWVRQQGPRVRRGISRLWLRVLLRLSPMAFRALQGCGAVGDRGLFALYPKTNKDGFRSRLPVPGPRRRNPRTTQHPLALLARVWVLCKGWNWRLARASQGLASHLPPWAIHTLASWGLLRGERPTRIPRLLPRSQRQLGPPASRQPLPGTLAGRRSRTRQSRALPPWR
In short: as §1

ZAK/MLTK = biological target: T10, ZAK/MLTK (Homo sapiens, UniProt Q9NYL2)
T10 construct: purchased Reaction Biology Corp
In short: as §1

[1] = read-out: % Enzyme Activity (relative to DMSO controls) AVG
[2] = read-out: % Enzyme Activity (relative to DMSO controls) Data 1
[3] = read-out: % Enzyme Activity (relative to DMSO controls) Data 2

T5 sequence (P07948 1-491 isoform P07948-2): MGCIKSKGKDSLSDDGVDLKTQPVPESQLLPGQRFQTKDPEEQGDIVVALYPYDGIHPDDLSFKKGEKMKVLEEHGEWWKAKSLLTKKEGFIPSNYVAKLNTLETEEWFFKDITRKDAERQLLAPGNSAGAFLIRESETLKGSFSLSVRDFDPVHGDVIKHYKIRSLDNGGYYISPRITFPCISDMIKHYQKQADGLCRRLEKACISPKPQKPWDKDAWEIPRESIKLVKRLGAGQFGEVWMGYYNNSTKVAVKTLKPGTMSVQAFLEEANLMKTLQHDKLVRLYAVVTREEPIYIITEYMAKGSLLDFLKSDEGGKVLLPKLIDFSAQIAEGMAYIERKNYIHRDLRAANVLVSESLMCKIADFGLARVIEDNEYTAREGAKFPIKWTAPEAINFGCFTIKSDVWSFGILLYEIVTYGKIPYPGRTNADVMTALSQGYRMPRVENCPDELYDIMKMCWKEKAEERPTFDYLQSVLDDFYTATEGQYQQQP
T6 sequence (Q96RG2 whole entry): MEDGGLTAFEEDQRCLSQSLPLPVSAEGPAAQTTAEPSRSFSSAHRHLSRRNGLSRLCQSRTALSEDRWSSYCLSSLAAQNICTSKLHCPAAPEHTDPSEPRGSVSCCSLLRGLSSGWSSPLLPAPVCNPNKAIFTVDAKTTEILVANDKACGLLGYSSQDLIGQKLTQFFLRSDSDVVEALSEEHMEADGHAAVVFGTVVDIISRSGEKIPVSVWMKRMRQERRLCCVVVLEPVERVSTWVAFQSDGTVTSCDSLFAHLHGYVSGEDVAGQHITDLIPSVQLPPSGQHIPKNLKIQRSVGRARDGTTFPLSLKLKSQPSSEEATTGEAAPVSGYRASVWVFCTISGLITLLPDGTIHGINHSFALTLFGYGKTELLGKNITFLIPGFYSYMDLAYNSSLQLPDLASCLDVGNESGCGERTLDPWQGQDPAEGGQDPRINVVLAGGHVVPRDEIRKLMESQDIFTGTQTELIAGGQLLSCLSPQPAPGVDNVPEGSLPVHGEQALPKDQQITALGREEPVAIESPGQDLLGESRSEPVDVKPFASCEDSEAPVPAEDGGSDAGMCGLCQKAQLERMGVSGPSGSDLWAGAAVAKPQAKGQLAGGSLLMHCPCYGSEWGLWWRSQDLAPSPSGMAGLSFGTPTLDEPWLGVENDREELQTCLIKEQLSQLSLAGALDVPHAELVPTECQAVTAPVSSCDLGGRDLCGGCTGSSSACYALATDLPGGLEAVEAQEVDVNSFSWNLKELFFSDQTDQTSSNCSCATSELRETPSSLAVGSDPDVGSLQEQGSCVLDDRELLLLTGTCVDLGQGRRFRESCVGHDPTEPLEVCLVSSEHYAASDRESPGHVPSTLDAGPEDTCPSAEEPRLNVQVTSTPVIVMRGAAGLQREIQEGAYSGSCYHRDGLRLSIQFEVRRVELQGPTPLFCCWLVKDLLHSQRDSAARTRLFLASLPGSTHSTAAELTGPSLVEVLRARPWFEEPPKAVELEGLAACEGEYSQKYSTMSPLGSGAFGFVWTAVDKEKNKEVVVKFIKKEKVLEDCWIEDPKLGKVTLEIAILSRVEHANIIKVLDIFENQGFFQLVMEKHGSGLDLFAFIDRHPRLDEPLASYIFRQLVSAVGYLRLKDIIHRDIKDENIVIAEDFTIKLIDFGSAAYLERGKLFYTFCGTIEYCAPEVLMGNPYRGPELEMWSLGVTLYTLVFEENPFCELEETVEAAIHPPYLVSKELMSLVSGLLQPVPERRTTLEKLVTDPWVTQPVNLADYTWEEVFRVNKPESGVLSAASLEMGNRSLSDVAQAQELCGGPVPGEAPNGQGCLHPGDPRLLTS
T4 sequence (P22455 22-802): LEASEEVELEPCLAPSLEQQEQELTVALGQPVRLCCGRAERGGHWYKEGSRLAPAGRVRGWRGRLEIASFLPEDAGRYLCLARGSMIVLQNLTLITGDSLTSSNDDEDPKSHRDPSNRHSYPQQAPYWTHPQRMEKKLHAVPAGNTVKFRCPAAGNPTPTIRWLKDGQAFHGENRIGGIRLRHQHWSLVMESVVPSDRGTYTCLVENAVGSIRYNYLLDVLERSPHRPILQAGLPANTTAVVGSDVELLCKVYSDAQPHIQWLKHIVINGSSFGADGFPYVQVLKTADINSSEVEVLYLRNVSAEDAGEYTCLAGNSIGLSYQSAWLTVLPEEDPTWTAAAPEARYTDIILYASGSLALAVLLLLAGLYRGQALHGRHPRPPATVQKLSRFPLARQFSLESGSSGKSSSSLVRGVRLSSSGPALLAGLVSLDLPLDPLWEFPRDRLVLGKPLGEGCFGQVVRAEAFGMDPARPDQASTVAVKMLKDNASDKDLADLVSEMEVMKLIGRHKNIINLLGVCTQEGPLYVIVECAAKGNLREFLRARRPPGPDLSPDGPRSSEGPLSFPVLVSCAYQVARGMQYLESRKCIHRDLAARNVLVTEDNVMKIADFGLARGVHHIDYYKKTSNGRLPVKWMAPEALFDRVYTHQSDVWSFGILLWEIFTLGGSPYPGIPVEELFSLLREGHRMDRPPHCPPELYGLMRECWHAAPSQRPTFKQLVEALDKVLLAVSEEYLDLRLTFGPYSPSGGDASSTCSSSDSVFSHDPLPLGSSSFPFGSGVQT
T7 sequence (P05771 whole entry): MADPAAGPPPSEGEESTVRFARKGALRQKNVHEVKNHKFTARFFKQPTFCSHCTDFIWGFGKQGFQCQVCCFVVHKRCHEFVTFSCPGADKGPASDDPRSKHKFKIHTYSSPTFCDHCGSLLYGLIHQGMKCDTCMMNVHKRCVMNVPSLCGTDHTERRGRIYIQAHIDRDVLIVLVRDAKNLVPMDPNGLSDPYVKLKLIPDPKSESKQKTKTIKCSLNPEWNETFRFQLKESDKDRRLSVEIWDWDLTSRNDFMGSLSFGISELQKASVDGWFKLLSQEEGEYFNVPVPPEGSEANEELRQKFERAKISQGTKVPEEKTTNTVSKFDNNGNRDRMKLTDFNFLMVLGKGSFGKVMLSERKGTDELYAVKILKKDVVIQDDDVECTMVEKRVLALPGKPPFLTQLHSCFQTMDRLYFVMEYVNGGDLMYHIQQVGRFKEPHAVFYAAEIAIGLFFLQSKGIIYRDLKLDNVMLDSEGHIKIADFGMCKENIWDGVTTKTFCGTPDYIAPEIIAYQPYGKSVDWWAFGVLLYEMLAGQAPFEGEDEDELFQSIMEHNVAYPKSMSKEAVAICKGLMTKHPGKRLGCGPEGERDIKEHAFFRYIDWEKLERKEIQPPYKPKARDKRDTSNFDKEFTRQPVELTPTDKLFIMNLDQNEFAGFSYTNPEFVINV
T3 sequence (Q05397 whole entry): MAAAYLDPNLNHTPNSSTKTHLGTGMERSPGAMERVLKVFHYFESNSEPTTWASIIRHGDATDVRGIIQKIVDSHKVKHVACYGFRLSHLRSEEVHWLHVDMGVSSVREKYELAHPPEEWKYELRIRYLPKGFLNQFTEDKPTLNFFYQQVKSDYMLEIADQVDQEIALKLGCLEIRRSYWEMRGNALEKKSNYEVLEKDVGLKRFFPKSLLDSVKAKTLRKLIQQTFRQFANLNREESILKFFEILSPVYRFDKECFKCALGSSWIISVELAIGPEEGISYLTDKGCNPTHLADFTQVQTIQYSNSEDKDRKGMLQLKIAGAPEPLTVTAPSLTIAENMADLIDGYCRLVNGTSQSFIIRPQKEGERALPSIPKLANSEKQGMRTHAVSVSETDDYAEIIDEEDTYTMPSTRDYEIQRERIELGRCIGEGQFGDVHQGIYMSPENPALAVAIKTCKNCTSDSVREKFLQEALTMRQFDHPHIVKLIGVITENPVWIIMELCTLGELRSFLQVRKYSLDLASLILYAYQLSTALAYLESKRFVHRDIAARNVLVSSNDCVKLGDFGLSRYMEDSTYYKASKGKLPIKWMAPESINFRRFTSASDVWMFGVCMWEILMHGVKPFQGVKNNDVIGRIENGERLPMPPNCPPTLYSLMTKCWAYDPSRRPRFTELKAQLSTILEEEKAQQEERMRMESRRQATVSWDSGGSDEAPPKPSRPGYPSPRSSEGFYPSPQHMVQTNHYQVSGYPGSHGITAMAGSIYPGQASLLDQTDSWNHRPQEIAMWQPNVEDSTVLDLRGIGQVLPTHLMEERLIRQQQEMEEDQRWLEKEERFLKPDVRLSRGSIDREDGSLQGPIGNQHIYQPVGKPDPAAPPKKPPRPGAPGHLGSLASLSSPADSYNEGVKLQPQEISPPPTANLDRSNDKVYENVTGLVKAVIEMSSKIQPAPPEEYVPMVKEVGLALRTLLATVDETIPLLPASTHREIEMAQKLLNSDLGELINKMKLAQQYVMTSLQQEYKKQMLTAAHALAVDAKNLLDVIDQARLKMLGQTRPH
T8 sequence (Q86UX6 whole entry): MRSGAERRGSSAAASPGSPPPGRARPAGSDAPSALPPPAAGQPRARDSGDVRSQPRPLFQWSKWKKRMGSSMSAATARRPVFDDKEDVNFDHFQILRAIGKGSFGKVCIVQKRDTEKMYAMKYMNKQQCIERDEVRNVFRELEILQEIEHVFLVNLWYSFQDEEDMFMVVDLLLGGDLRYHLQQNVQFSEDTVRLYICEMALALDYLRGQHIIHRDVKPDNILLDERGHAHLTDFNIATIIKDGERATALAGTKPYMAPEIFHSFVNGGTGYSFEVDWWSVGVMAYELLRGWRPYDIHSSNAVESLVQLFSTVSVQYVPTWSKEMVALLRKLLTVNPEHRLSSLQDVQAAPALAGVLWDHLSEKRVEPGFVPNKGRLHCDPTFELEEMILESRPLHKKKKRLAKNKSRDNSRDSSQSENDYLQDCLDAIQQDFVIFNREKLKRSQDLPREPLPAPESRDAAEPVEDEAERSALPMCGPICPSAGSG

## CC(C)(C)C(=O)N1N=CC[C@H]1c1ccccc1 [GSK′963]
CDK2/cyclin A; [1]
  remaining activity at 10 µM: 93.6%
CDK2/cyclin A; [2]
  remaining activity at 10 µM: 95.3%
CDK2/cyclin A; [3]
  remaining activity at 10 µM: 92%
DLK/MAP3K12; [1]
  remaining activity at 10 µM: 104%
DLK/MAP3K12; [2]
  remaining activity at 10 µM: 106%
DLK/MAP3K12; [3]
  remaining activity at 10 µM: 102%
FAK/PTK2; [1]
  remaining activity at 10 µM: 101%
FAK/PTK2; [2]
  remaining activity at 10 µM: 101%
FAK/PTK2; [3]
  remaining activity at 10 µM: 101%
FGFR4; [1]
  remaining activity at 10 µM: 93.5%
FGFR4; [2]
  remaining activity at 10 µM: 91.5%
FGFR4; [3]
  remaining activity at 10 µM: 95.6%
LYN B; [1]
  remaining activity at 10 µM: 99.7%
LYN B; [2]
  remaining activity at 10 µM: 103%
LYN B; [3]
  remaining activity at 10 µM: 96%
PASK; [1]
  remaining activity at 10 µM: 102%
PASK; [2]
  remaining activity at 10 µM: 103%
PASK; [3]
  remaining activity at 10 µM: 101%
PKCb1; [1]
  remaining activity at 10 µM: 97.8%
PKCb1; [2]
  remaining activity at 10 µM: 96.7%
PKCb1; [3]
  remaining activity at 10 µM: 98.9%
STK32C/YANK3; [1]
  remaining activity at 10 µM: 98.9%
STK32C/YANK3; [2]
  remaining activity at 10 µM: 97.5%
STK32C/YANK3; [3]
  remaining activity at 10 µM: 100%
TAOK2/TAO1; [1]
  remaining activity at 10 µM: 95.6%
TAOK2/TAO1; [2]
  remaining activity at 10 µM: 97%
TAOK2/TAO1; [3]
  remaining activity at 10 µM: 94.2%
ZAK/MLTK; [1]
  remaining activity at 10 µM: 105%
ZAK/MLTK; [2]
  remaining activity at 10 µM: 106%
ZAK/MLTK; [3]
  remaining activity at 10 µM: 104%
